Assay results taken from publication PMC9258905, “Discovery of Quercetin and Its Analogs as Potent OXA-48 Beta-Lactamase Inhibitors” (Frontiers in Pharmacology, 2022).

How the values were obtained:
[1] = test system: E.coli BW25113 ∆acrA∆bamB (OXA-48); type: cell-based; conditions: for reduction in the piperacillin MIC: compound at 64 μg/mL; for MIC decrease for imipenem: compound at a dose of 64 μg/mL
Procedure: The recombinant plasmid containing the Pbla promoter and OXA-48 constructed above was then transformed into BW25113, BW25113 ∆acrA, BW25113 ∆bamB, and BW25113 ∆acrA∆bamB. The above strains were used to study the minimum inhibitory concentration (MIC). Antibiotic susceptibility tests were performed by the microdilution method following Clinical and Laboratory Standards Institute (CLSI) criteria ([CLSI, 2015]). Four E. coli strains expressing OXA-48 were used to assess the inhibitors. The susceptibility to piperacillin/imipenem combined with the compound at a concentration of 16 or 64 μg/mL was determined. […] Each measurement was conducted in triplicate. The fractional inhibitory concentration index (FICI) was determined according to the following formula: FICI = MIC (QT) in combination/MIC (QT) alone + MIC (PIP) in combination/MIC (PIP) alone. The drug interactions are defined as synergistic if the FICI is ≤0.5, indifferent if the FICI is >0.5 and ≤4.0, and antagonistic if the FICI is >4.0.
To investigate whether the compounds could restore the antimicrobial activity of β-lactam, the MICs of β-lactam antibiotics against resistant Gram-negative bacteria in the absence and presence of compounds (fisetin, 3′,4′,7-trihydroxyflavone, luteolin or quercetin) were determined by using published guidelines described by CLSI ([CLSI, 2015]). Specifically, we used OXA-48 producing strains E. coli BW25113, BW25113 ∆acrA, BW25113 ∆bamB, and BW25113 ∆acrA∆bamB as resistant Gram-negative bacteria. […] Imipenem, a carbapenem antibiotic, was applied at increasing concentrations ranging from 0.03 μg/mL to 4 μg/mL. The compounds were tested at 64 and 16 μg/mL.

cells = conditions: 50 µM fisetin/luteolin; ref Hytti et al., 2015; cited from earlier work
OXA-48 [2] = target: T1, OXA-48 (Klebsiella pneumoniae, UniProt Q6XEC0); assay: Enzyme inhibition assay against purified OXA-48 with nitrocefin as substrate; type: biochemical; conditions: for percent inhibition against OXA-48: at 50 μM compound, nitrocefin substrate, 50 µM; for IC50: purified OXA-48 12 nM, nitrocefin 200 μM, 0.1 M phosphate buffer pH 7.0, 50 mM NaHCO3, 25°C, read-out: IC50 against OXA-48
T1 construct: made in house; host or cells: E. coli BL21(DE3)
T1 sequence (Q6XEC0 23-265 limits assumed): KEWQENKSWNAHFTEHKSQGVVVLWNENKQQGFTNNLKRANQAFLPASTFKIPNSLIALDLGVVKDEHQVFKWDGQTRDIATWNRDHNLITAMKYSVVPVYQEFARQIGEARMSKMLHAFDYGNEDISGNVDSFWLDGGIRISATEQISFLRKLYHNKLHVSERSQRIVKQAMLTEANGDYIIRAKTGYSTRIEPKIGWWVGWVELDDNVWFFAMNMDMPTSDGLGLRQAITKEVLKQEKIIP
Procedure: The inhibitory activity of compounds against the purified OXA-48 was tested on a BioTek HTS reader. The reactions were conducted in 0.1 M phosphate buffer (pH 7.0) supplemented with 50 mM NaHCO3 at 25°C with a final assay volume of 100 μL. The concentrations of enzyme and substrate were 12 nM and 200 μM, respectively. The initial reaction rates in the absence and presence of the compound were monitored at 495 nm in triplicate. The inhibitor concentration causing a 50% decrease in enzyme activity (IC50) was determined by plotting the percent inhibition against the log10 of the inhibitor concentration and fitting the data in a dose–response-inhibition model using GraphPad Prism 7.0.
Quercetin is a member of the flavonoid class with diverse structures obtained from nature, some of which have been used for the treatment of infectious diseases in traditional medical systems ([Farhadi et al., 2019]). To investigate whether quercetin and other flavonoids are OXA-48 inhibitors, the enzyme inhibition assays were conducted on a BioTek HTS reader using nitrocefin as a substrate. The concentrations of enzyme and substrate were 12 nM and 200 μM, respectively. The initial hydrolysis rate of nitrocefin was monitored at 495 nm. The percentage inhibition is defined as the enzyme activity in the absence of inhibitor (100%) minus the remaining activity in the presence of inhibitor.

OXA-48 [3] = target: T1, OXA-48; assay: Inhibition kinetics (Lineweaver-Burk plots) of OXA-48-catalyzed nitrocefin hydrolysis; type: biochemical; conditions: for inhibition mode: Lineweaver-Burk plots, Km unchanged, Vmax decreased; for Ki: nitrocefin 25, 50, 75, 100 μM, Lineweaver-Burk
Procedure: The inhibition mode of quercetin and the inhibition constant (K i) were determined using a Lineweaver–Burk plot by fitting the initial rate versus the substrate concentration at each inhibitor concentration using SigmaPlot 12.0. The nitrocefin concentrations were 25, 50, 75, and 100 μM, respectively. The initial velocity was determined by measuring the […] as described above. All reaction rates were determined in triplicate.
To determine the inhibition mode of the flavonoids, the inhibition kinetics of quercetin, fisetin and luteolin against OXA-48 in the presence of different concentrations of substrate were determined, and the inhibition modes were determined by generating Lineweaver-Burk plots.

[4] = test system: E. coli BW25113 ∆acrA∆bamB (OXA-48); assay: Growth curve with quercetin alone; type: cell-based; conditions: quercetin at 16 or 64 μg/mL
Source text: We next performed checkerboard microdilution assays against OXA-48-positive strain BW25113 ∆acrA∆bamB (OXA-48) and OXA-48-negative strain ∆acrA∆bamB to assess the synergistic antimicrobial effect. […] The synergy effect was further verified by time-kill curves.
FIGURE 6 (A,B) Heatmap showing the growth inhibition of OXA-48-positive strain E. coli BW25113 ∆acrA∆bamB (OXA-48) (A) and OXA-48-negative strain ∆acrA∆bamB (B) in the presence of quercetin and piperacillin. (C) Time-kill curves for combination therapy of piperacillin and quercetin against E. coli BW25113 ∆acrA∆bamB (OXA-48). The concentrations of piperacillin and quercetin used in the assay were 64 and 64 μg/mL , respectively. (D) The growth curve of E. coli BW25113 ∆acrA∆bamB (OXA-48) in the absence and presence of quercetin.

[5] = test system: E. coli BW25113 ∆acrA∆bamB (OXA-48); assay: Mouse systemic infection model; type: in vivo, Kunming mice; conditions: 10 mg/kg each, intravenous, 1 h post infection; organs 24 h post-infection; vs untreated group
OXA-48 [6] = target: T1, OXA-48; assay: Surface plasmon resonance interaction analysis; type: binding; conditions: 12.5-200 µM quercetin over immobilized OXA-48
Procedure: Surface plasmon resonance (SPR) experiments were performed on a Biacore T100 at 25°C. The running buffer consisted of 10 mM PBS (pH 7.3), 0.5% Tween-20, and 2.5% DMSO. OXA-48 solution was prepared in a concentration of […] in 10 mM PBS (pH 7.3) and immobilized on a CM5 chip using standard amine coupling to a level of approximately 5000 RU. Quercetin was dissolved in the running buffer and tested in 2-fold dilutions ranging from 12.5 to 200 µM with an injection time of 30 s and a dissociation time of 60 s. The data were analyzed using Biacore T100 Evaluation Software 2.0.
A surface plasmon resonance (SPR) assay was then performed to investigate whether quercetin inhibited the activity of OXA-48 by directly binding to OXA-48. OXA-48 enzyme was immobilized on a CM5 sensor chip with an immobilization level of approximately 5000 RU. Quercetin was injected at different concentrations (12.5, 25, 50, 100 and 200 µM) over the protein surface.

OXA-48 β-Lactamase = target: T2, OXA-48 β-Lactamase (Klebsiella pneumoniae, UniProt Q6XEC0); assay: Partition ratio measurement; type: biochemical; conditions: OXA-48 12 nM, 1 h incubation; at a 5 μM concentration of quercetin
T2 construct: made in house; host or cells: E. coli BL21(DE3)
T2 sequence (Q6XEC0 23-265 limits assumed): as above

mice = conditions: ref Sullivan et al., 1951, Taepongsorat et al., 2008; cited from earlier work
[7] = test system: ∆acrA∆bamB (OXA-48) mutant strain; assay: Cell-based screen of natural products in the presence of piperacillin; design: species or system E. coli
Procedure: The ∆acrA∆bamB (OXA-48) mutant strain was then used to screen for inhibitors of OXA-48. […] Approximately 150 plant natural products with a concentration of 40 μg/mL were screened in the presence of 128 μg/mL piperacillin.

OXA-48 [8] = target: T1, OXA-48; assay: Isothermal titration calorimetry of imipenem hydrolysis by OXA-48; type: biochemical; conditions: quercetin 0 to 40 µM, imipenem 1 mM, OXA-48 10 nM, 25°C
Procedure: OXA-48, imipenem, and quercetin were prepared in 30 mM Tris, 5 mM NaHCO3 (pH 7.5) supplemented with 5% DMSO. […] The solutions were degassed by centrifugation at a speed of 14,000 × g for 5 min before injection. The enzyme and inhibitor samples were preincubated for 1 h and then loaded into the sample cell. Imipenem (38 µL) in the syringe was titrated into the sample cell (210 µL) in a single injection mode. Heat flow (μcal/s) was recorded as a function of time. As a negative control, the reaction in the absence of quercetin was measured. The data were collected and analyzed with MicroCal Analysis Launcher Origin 7.0 software.
Isothermal titration calorimetry (ITC) was performed to assess the thermodynamic inhibitory effect of quercetin against OXA-48 ([Zhang et al., 2018]). […] Different concentrations of quercetin were incubated with purified OXA-48 for 1 h in 30 mM Tris, 5 mM NaHCO3 (pH 7.5). The mixtures were loaded into the sample cell (210 µL). A 38 µL of the substrate (imipenem) in the syringe was titrated into the sample cell in a single injection mode.

Structure (SMILES) | reduction in the piperacillin MIC [1] [fold] | MIC decrease for imipenem [1] [fold] | toxicity to the cells (cells) | percent inhibition against OXA-48 (OXA-48 [2]) [%] | percent inhibition against OXA-48 (OXA-48 [2]; listed as fisetin) | IC50 (OXA-48 [2]) [nM] | inhibition mode (OXA-48 [3]) | Ki (OXA-48 [3]) [nM] | growth of the cells [4] | bacterial load in spleen and liver [5] | SPR interaction with OXA-48 (OXA-48 [6]) | percent inhibition against OXA-48 (OXA-48 [2]; listed as quercetin) | partition ratio (I:E for greater than 90% inhibition) (OXA-48 β-Lactamase) | LD50 (mice) [mg/kg] | restoration of antibiotic activity in screen ([7]; 40 μg/mL compound with 128 μg/mL piperacillin) | bactericidal effect of the compound itself ([7]; in the absence of piperacillin) | reversibility of inhibition (total heat of imipenem hydrolysis) (OXA-48 [8])
O=c1c(O)c(-c2ccc(O)c(O)c2)oc2cc(O)ccc12 [Fisetin] | 2 | 2 | no toxicity | 90 | more than 50% | 470 ± 30 | noncompetitively inhibited | 620 ± 60 |  |  |  |  |  |  |  |  | 
O=c1c(O)c(-c2ccc(O)c(O)c2)oc2cc(O)cc(O)c12 [Quercetin] | 8 | 2 |  | 87 |  | 1470 ± 140 | noncompetitively inhibited | 1310 ± 210 | did not inhibit the growth of the cells | did not show a significant reduction of bacterial load | dose-dependent interaction | more than 50% | approximately 420 | 160 | restored antibiotic activity | without bactericidal effect | reversibly inhibited OXA-48
